In the experiment the target is T1, human kidney-type glutaminase (KGA), catalytic domain (cKGA) (Homo sapiens, UniProt O94925).
T1 sequence (O94925 221-533): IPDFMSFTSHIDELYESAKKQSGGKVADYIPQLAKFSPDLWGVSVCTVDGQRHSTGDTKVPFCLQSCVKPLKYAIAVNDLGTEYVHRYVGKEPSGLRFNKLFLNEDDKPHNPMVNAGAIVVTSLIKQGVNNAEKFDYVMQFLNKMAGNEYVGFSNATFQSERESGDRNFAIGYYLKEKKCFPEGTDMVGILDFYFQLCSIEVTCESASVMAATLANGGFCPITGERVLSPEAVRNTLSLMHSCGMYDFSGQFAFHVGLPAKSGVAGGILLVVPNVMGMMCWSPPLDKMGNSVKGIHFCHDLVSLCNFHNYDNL
Briefly: X-ray crystal structure at […] Å. The format is biochemical.

The term IC50 denotes the midpoint of a concentration-inhibition curve. The low end stands for greater potency in that assay, the high end for weaker potency in that assay. Turning to `[N-]=[N+]=CC(=O)CC[C@H](N)C(=O)O` [DON, 6-diazo-5-oxo-L-norleucine], the IC50 was around 1000 µM.

(Values after PMC4929687 (Scientific Reports, 2014).)
